Data published in patent publication US20150232452A1, “NOVEL RAF KINASE INHIBITORS” (Ruga Corporation, priority 2012, published 2015).

Tests used:
[1] = molecular target: Braf V600E (recombinant V600E mutated B-RAF) (Homo sapiens, UniProt P15056, V600E); assay: In vitro assay for determining inhibition of mutant B-RAF kinase; format: biochemical; conditions: 10 nM recombinant V600E mutated B-RAF, 1 μM MEK (K97R) as substrate
Protocol: In Vitro Assay for Determining Inhibition of B-RAF Kinase or Mutant B-RAF Kinase
Solutions of varying concentrations of test compounds or vehicle are added to 10 nM recombinant V600E mutated B-RAF proteins incubated in the presence of different concentrations of ATP and 1 μM MEK (K97R) as substrate, as previously described (Wilhelm, S. M., et al., Cancer Res., 64: 7099-7109, 2004; Mason, C. S., et al., EMBO J. 18: 2137-2148, 1999; Marais, R., et al., J. Biol. Chem., 272: 4378-4383, 1997). At least triplicate determinations for each individual test compound concentration are made and data is plotted as mean±standard deviation relative to the control vehicle.

[2] = test system: A375 cells (V600E activated B-RAF); assay: In vitro assay for tumor cell growth (MTT, 72 hours incubation); format: cell-based; conditions: Homo sapiens, A-375, 72 h, growth inhibition of A375 cells, unit inferred
Protocol: In Vitro Assays for Tumor Cell Growth
Cell lines are obtained from the American Type Tissue Culture Collection (Maryland, USA) and cultured in media containing heat-inactivated 10% fetal bovine serum. Cell cultures are also maintained in 10 U/mL penicillin, 100 μg/mL streptomycin and 2 mM glutamine. At least triplicate determinations for each individual test compound concentration are made and data is plotted as mean±standard deviation relative to the control vehicle.

Braf V600E (recombinant V600E mutated B-RAF), sequence (P15056 whole entry V600E): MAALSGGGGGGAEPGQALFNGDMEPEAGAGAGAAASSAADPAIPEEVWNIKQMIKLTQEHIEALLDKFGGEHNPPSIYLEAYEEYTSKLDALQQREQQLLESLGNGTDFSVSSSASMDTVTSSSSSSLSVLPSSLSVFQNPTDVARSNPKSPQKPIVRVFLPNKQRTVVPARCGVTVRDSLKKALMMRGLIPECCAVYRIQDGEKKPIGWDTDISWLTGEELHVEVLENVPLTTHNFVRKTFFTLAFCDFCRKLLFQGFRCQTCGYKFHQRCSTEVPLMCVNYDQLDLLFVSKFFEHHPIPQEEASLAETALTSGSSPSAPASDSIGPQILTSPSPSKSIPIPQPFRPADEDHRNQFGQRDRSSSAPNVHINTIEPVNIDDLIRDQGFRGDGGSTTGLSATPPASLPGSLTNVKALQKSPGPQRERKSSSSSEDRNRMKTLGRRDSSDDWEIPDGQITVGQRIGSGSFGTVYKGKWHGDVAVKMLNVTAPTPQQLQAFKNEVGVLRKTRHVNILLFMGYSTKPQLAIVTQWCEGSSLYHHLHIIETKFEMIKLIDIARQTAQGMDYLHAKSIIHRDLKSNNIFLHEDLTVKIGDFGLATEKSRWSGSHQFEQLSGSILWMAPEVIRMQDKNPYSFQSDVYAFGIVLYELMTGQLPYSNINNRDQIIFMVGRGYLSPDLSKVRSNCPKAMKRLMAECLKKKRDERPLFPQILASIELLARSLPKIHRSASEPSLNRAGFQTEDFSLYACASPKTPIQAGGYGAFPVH

Compound | IC50 [1] [µM] | IC50 [2] [µM]
CC(C)(C)c1nc(-c2ccnc(N)n2)c(-c2cccc(NC(=O)Nc3ccc(C(F)(F)F)cc3)c2)s1 [Example 1, 1-(3-(4-(2-aminopyrimidin-4-yl)-2-(tert-butyl)thiazol-5-yl)phenyl)-3-(4-(trifluoromethyl)phenyl)urea] | 0.225 | > 10
CC(C)(C)c1nc(-c2ccnc(N)n2)c(-c2cccc(NC(=O)Nc3ccc(C(F)(F)F)cc3)c2F)s1 [Example 2, 1-(3-(4-(2-aminopyrimidin-4-yl)-2-(tert-butyl)thiazol-5-yl)-2-fluorophenyl)-3-(4-(trifluoromethyl)phenyl)urea] | 3.98 | > 10
CCn1cc(-c2cccc(NC(=O)Nc3ccc(C(F)(F)F)cc3)c2)c(-c2ccncc2)n1 [Example 3, 1-(3-(1-ethyl-3-(pyridin-4-yl)-1H-pyrazol-4-yl)phenyl)-3-(4-(trifluoromethyl)phenyl)urea] | 0.00072 | 0.202
CCn1cc(-c2cccc(NC(=O)Nc3ccc(C(C)(C)C)cc3)c2)c(-c2ccncc2)n1 [Example 4, 1-(4-(tert-butyl)phenyl)-3-(3-(1-ethyl-3-(pyridin-4-yl)-1H-pyrazol-4-yl)phenyl)urea] | 0.00653 | 0.506
CCn1cc(-c2cccc(NC(=O)Nc3ccc(C)cc3)c2)c(-c2ccncc2)n1 [Example 5, 1-(3-(1-ethyl-3-(pyridin-4-yl)-1H-pyrazol-4-yl)phenyl)-3-(p-tolyl)urea] | 0.00161 | 0.815
CCn1cc(-c2cccc(NC(=O)Nc3ccc(C(C)C)cc3)c2)c(-c2ccncc2)n1 [Example 6, 1-(3-(1-ethyl-3-(pyridin-4-yl)-1H-pyrazol-4-yl)phenyl)-3-(4-isopropylphenyl)urea] | 0.00118 | 0.449
CCn1cc(-c2cccc(NC(=O)Nc3cccc(C(F)(F)F)c3)c2)c(-c2ccncc2)n1 [Example 7, 1-(3-(1-ethyl-3-(pyridin-4-yl)-1H-pyrazol-4-yl)phenyl)-3-(3-(trifluoromethyl)phenyl)urea] | 0.00444 | 1.75
CCn1cc(-c2cccc(NC(=O)Nc3ccc(F)c(C(F)(F)F)c3)c2)c(-c2ccncc2)n1 [Example 8, 1-(3-(1-ethyl-3-(pyridin-4-yl)-1H-pyrazol-4-yl)phenyl)-3-(4-fluoro-3-(trifluoromethyl)phenyl)urea] | 0.00431 | 2.54
CCn1cc(-c2cccc(NC(=O)Nc3ccc(Cl)c(C(F)(F)F)c3)c2)c(-c2ccncc2)n1 [Example 9, 1-(4-chloro-3-(trifluoromethyl)phenyl)-3-(3-(1-ethyl-3-(pyridin-4-yl)-1H-pyrazol-4-yl)phenyl)urea] | 0.00301 | 1.78
CCn1cc(-c2cccc(NC(=O)Nc3ccc(I)cc3)c2)c(-c2ccncc2)n1 [Example 10, 1-(3-(1-ethyl-3-(pyridin-4-yl)-1H-pyrazol-4-yl)phenyl)-3-(4-iodophenyl)urea] | 0.0022 | 0.049
CCn1cc(-c2cccc(NC(=O)Nc3cccc(C)c3)c2)c(-c2ccncc2)n1 [Example 11, 1-(3-(1-ethyl-3-(pyridin-4-yl)-1H-pyrazol-4-yl)phenyl)-3-(m-tolyl)urea] | 0.00498 | 3.47
CCn1cc(-c2cccc(NC(=O)Nc3ccc(Cl)cc3Cl)c2)c(-c2ccncc2)n1 [Example 12, 1-(2,4-dichlorophenyl)-3-(3-(1-ethyl-3-(pyridin-4-yl)-1H-pyrazol-4-yl)phenyl)urea] | 0.00639 | 1.37
CCn1cc(-c2cccc(NC(=O)Nc3ccccc3Cl)c2)c(-c2ccncc2)n1 [Example 13, 1-(2-chlorophenyl)-3-(3-(1-ethyl-3-(pyridin-4-yl)-1H-pyrazol-4-yl)phenyl)urea] | 0.0587 | –
CCn1cc(-c2cccc(NC(=O)Nc3cccc(F)c3)c2)c(-c2ccncc2)n1 [Example 14, 1-(3-(1-ethyl-3-(pyridin-4-yl)-1H-pyrazol-4-yl)phenyl)-3-(3-fluorophenyl)urea] | 0.0393 | –
CCn1cc(-c2cccc(NC(=O)Nc3ccccc3F)c2)c(-c2ccncc2)n1 [Example 15, 1-(3-(1-ethyl-3-(pyridin-4-yl)-1H-pyrazol-4-yl)phenyl)-3-(2-fluorophenyl)urea] | 0.0538 | –
CCn1cc(-c2cccc(NC(=O)Nc3ccc(Cl)cc3)c2)c(-c2ccncc2)n1 [Example 16, 1-(4-chlorophenyl)-3-(3-(1-ethyl-3-(pyridin-4-yl)-1H-pyrazol-4-yl)phenyl)urea] | 0.00231 | 0.272
CCn1cc(-c2cccc(NC(=O)Nc3ccc(I)cc3F)c2)c(-c2ccncc2)n1 [Example 17, 1-(3-(1-ethyl-3-(pyridin-4-yl)-1H-pyrazol-4-yl)phenyl)-3-(2-fluoro-4-iodophenyl)urea] | – | 0.166
CCn1cc(-c2cccc(NC(=O)Nc3ccc(Br)cc3F)c2)c(-c2ccncc2)n1 [Example 18, 1-(4-bromo-2-fluorophenyl)-3-(3-(1-ethyl-3-(pyridin-4-yl)-1H-pyrazol-4-yl)phenyl) urea] | – | 0.541
CCn1cc(-c2cccc(NC(=O)Nc3ccc(I)c(F)c3)c2)c(-c2ccncc2)n1 [Example 19, 1-(3-(1-ethyl-3-(pyridin-4-yl)-1H-pyrazol-4-yl)phenyl)-3-(3-fluoro-4-iodophenyl)urea] | – | 0.042
CCn1cc(-c2cccc(NC(=O)Nc3cccc(I)c3)c2)c(-c2ccncc2)n1 [Example 20, 1-(3-(1-ethyl-3-(pyridin-4-yl)-1H-pyrazol-4-yl)phenyl)-3-(3-iodophenyl)urea] | – | 2.08
CCn1cc(-c2cccc(NC(=O)Nc3ccc(Br)cc3)c2)c(-c2ccncc2)n1 [Example 21, 1-(4-bromophenyl)-3-(3-(1-ethyl-3-(pyridin-4-yl)-1H-pyrazol-4-yl)phenyl)urea] | – | 0.085
CCn1cc(-c2cccc(NC(=O)Nc3ccc(Br)c(F)c3)c2)c(-c2ccncc2)n1 [Example 22, 1-(4-bromo-3-fluorophenyl)-3-(3-(1-ethyl-3-(pyridin-4-yl)-1H-pyrazol-4-yl)phenyl)urea] | – | 0.083
CC(C)n1cc(-c2cccc(NC(=O)Nc3ccc(C(F)(F)F)cc3)c2)c(-c2ccncc2)n1 [Example 23, 1-(3-(1-isopropyl-3-(pyridin-4-yl)-1H-pyrazol-4-yl)phenyl)-3-(4-(trifluoromethyl)phenyl)urea] | 0.006 | 1.73
CC(C)n1cc(-c2cccc(NC(=O)Nc3ccc(I)c(F)c3)c2)c(-c2ccncc2)n1 [Example 24, 1-(3-fluoro-4-iodophenyl)-3-(3-(1-isopropyl-3-(pyridin-4-yl)-1H-pyrazol-4-yl)phenyl)urea] | – | 0.233
CC(C)(C)n1cc(-c2cccc(NC(=O)Nc3ccc(C(F)(F)F)cc3)c2)c(-c2ccncc2)n1 [Example 25, 1-(3-(1-(tert-butyl)-3-(pyridin-4-yl)-1H-pyrazol-4-yl)phenyl)-3-(4-(trifluoromethyl)phenyl)urea] | 1.6 | –
CCn1cc(-c2cccc(NC(=O)Nc3ccc(Br)c(F)c3)c2)c(-c2ccnc(N)n2)n1 [Example 27, 1-(3-(3-(2-aminopyrimidin-4-yl)-1-ethyl-1H-pyrazol-4-yl)phenyl)-3-(4-bromo-3-fluorophenyl)urea] | – | 0.571
CCn1cc(-c2cccc(NC(=O)Nc3ccc(C(F)(F)F)cc3)c2)c(-c2ccnc(N)n2)n1 [Example 28, 1-(3-(3-(2-aminopyrimidin-4-yl)-1-ethyl-1H-pyrazol-4-yl)phenyl)-3-(4-(trifluoromethyl)phenyl)urea] | 0.0035 | 0.362
